Experiment [1] addresses T1, GPD1 (Homo sapiens, UniProt P21695).
T1 construct: purchased recombinant protein (Proteintech Ag4471); Red-NHS dye labelled for MST; source of enzyme in activity assay not restated
T1 sequence (P21695 1-349): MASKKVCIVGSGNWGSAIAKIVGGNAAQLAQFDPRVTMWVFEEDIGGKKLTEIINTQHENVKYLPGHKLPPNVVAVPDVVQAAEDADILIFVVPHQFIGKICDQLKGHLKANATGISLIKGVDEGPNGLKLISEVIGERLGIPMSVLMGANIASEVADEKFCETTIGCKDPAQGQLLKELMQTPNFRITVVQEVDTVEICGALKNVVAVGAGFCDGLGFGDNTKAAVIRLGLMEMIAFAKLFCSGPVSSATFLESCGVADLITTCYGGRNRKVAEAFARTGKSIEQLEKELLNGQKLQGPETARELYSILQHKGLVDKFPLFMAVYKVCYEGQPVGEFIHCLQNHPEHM
The experiment is described as follows: microscale thermophoresis (Monolith NT.[…], Hill fit). It is filed as binding. A general note: Microscale thermophoresis detects binding through changes in fluorescence in a small temperature gradient.

Experiment [2] has as its target T1, GPD1. The experiment is described as follows: NADH absorbance at […] nm, initial rate of DHAP reduction. It is filed as biochemical. As to conditions: 200 uM NADH, 8 mM DHAP, 1 uM GPD1, 20 mM TEA, 0.1 mg/mL BSA, I = 0.12 (NaCl); activator, proposed allosteric.

pKd: −log10 of the molar value.

`COc1cc(O)c2c(c1)oc(=O)c1c3cc(O)c(O)cc3oc21` [wedelolactone] gave a pKd on GPD1 [1] of 6.30. For the same compound, the activation result on GPD1 [2] is listed as “wedelolactone (WE) from Bioactive Compound Library Plus in MedChemExpress LLC had substantial activity”.

As a reminder, the pKd is the Kd on a negative log10 scale, so that one unit is a factor of ten. Lower therefore signals a high Kd.

The values above are taken from paper PMC9284842, “Allosteric activation of the metabolic enzyme GPD1 inhibits bladder cancer growth via the lysoPC-PAFR-TRPV2 axis” (Journal of Hematology & Oncology, 2022).
